From US20160250285A1, “NEUROPROTECTIVE PEPTIDES” (priority 2013, published 2016)
Entries after “also recorded” stand apart in the source; their conditions may differ.

Assays:
[1] = tested on: neuroblastoma cell line (SH-SY5Y); experiment: In vitro ischemia model, SH-SY5Y cells; type: cell-based; settings: 5 μM during/2.5 μM post (FIG. 3c)
Protocol: A brain endothelial cell line (bEND3) and a neuroblastoma cell line (SH-SY5Y) were also used for some experiments. bEND3 and SH-SY5Y cells were cultured using standard techniques in DMEM plus 5 or 15% foetal calf serum. Rat primary astrocytes were obtained and cultured as described for cortical neurons except DMEM plus 10% foetal calf serum was used instead of Neurobasal/2% B27, and the mitotic inhibitor, cytosine arabinofuraNOside was not used.
The in vitro ischemia model was also used for bEND3 cells, SH-SY5Y cells, and astrocytes. For bEND3 cells anaerobic incubation was extended to 2-3 hours and upon removal from the anaerobic incubator, 60 μl of DMEM/2% FCS was added to wells. […]
Twenty-four hours after insult, neuronal cultures were examined by light microscopy for qualitative assessment of neuronal cell viability. Neuronal viability was quantitatively measured by 3-(4,5,dimethyliazol-2-yl)-5-(3-carboxymethoxy-phenyl)-2-(4-sulfophenyl)-2H-tetrazolium salt (MTS) assay (Promega, Australia). The MTS assay measures the cellular conversion of the tetrazolium salt to a water-soluble brown formazan salt, which is detected spectrophotometrically at 490 nm. MTS absorbance data were converted to reflect proportional cell viability relative to both the untreated and treated controls, with the untreated control taken as 100% viability, and presented as mean±SEM. […]

[2] = tested on: primary cortical neuronal cultures
Protocol: Establishment of cortical cultures was as previously described (Meloni et al. 2001). Briefly, cortical tissue from E18-E19 Sprague-Dawley rats was dissociated in Dulbecco's modified Eagle medium (DMEM; Invitrogen, Australia) supplemented with 1.3 mM L-cysteine, 0.9 mM NaHCOa, 10 units/ml papain (Sigma, USA) and 50 units/ml DNase (Sigma) and washed in cold DMEM/10% horse serum. Neurons were resuspended in Neurobasal (Invitrogen) containing 2% B27 supplement (B27; Invitrogen). Before seeding, 96-well sized glass wells (6 mm diameter, ProTech, Australia) or 96-well plastic plates (ProSciTech, Australia) were coated with poly-D-lysine overnight ([…]: 50 mg/mL; 70-150 K, Sigma). Excess poly-D-lysine solution was then removed and replaced with Neurobasal (containing 2% B27; 4% fetal bovine serum; 1% horse serum; […] glutamate; […] 2-mercaptoethanol; and […]). Neurons were plated to obtain ≈10,000 viable neurons for each well on day in vitro 11-12. Neuronal cultures were maintained in a CO2 incubator (5% CO2, 95% air balance, 98% humidity) at 37° C. On day in vitro 4 one third of the culture medium was removed and replaced with fresh Neurobasal/2% B27 containing the mitotic inhibitor, cytosine arabinofuraNOside (1 mM final concentration; Sigma). On day in vitro 8 one half of the culture medium was replaced with Neurobasal/2% B27. Cultures were used on day in vitro 11 or 12 after which time they routinely consist of >97% neurons and 1-3% astrocytes (Meloni et al. 2001).
Peptides were added to culture wells (96-well plate format) 15 minutes prior to glutamic acid or kainic acid exposure by removing media and adding 50 μl of Neurobasal/2% 327 containing CPPs, control peptides or MK801/CNQX. To induce excitotoxicity, 50 μl of Neurobasal/2% B27 containing glutamic acid (200 μM) or kainic acid (400 μM) or NMDA (200 μM) was added to the culture wells (100 μM glutamic acid, 200 μM kainic acid and NMDA 100 μM final concentration). Cultures were incubated at 37° C. in the CO2 incubator for 5 minutes for glutamic acid, 45 minutes for kainic acid and 10 minutes for NMDA exposure, after which time the media was replaced with 100 μl of 50% Neurobasal/2% N2 supplement (Invitrogen) and 50% balanced salt solution (BSS; see below). Cultures were incubated for a further 24 hours at 37° C. in the CO2 incubator. The untreated controls with or without glutamic acid or kainic acid treatment received the same wash steps and media additions.
Twenty-four hours after insult, neuronal cultures were examined by light microscopy for qualitative assessment of neuronal cell viability. Neuronal viability was quantitatively measured by 3-(4,5,dimethyliazol-2-yl)-5-(3-carboxymethoxy-phenyl)-2-(4-sulfophenyl)-2H-tetrazolium salt (MTS) assay (Promega, Australia). The MTS assay measures the cellular conversion of the tetrazolium salt to a water-soluble brown formazan salt, which is detected spectrophotometrically at 490 nm. MTS absorbance data were converted to reflect proportional cell viability relative to both the untreated and treated controls, with the untreated control taken as 100% viability, and presented as mean±SEM. For studies using astrocytes, bEND3, and SH-Y5Y cells, raw MTS data was used to generate graphs. Viability data was analysed by ANOVA, followed by post-hoc Fischer's PLSD test, with P<0.05 values considered statistically significant. Four- to six wells were used in all assays.

[3] = tested on: brain endothelial cells (bEND3 cells); experiment: In vitro ischemia/OGD model, bEND3 cells; type: cell-based; settings: peptide during/after ischemia (FIG. 3c) or 15 min before OGD (FIGS. 23, 24)
Protocol: The in vitro ischemia model was also used for bEND3 cells, SH-SY5Y cells, and astrocytes. For bEND3 cells anaerobic incubation was extended to 2-3 hours and upon removal from the anaerobic incubator, 60 μl of DMEM/2% FCS was added to wells. […] Upon removal from the anaerobic incubator, 60 μl of DMEM/2% FCS was added to wells.

fold more potent than TAT-D, based on IC50 values ([2]; kainic acid model): 7 fold
SMILES: N=C(N)NCCC[C@H](NC(=O)[C@H](CCCNC(=N)N)NC(=O)[C@H](CCCNC(=N)N)NC(=O)[C@H](CCCNC(=N)N)NC(=O)[C@H](CCCNC(=N)N)NC(=O)[C@H](CCCNC(=N)N)NC(=O)[C@H](CCCNC(=N)N)NC(=O)[C@H](CCCNC(=N)N)NC(=O)[C@@H](N)CCCNC(=N)N)C(=O)O [Peptide R9]
protection of SH-SY5Y cells (cell death after in vitro ischemia) [1]: reduced; also recorded: able to protect | neuroprotection ([2]; FIG. 2): neuroprotective | IC50 ([2]; read-out: IC50: Kainic acid model, Table 3, from FIG. 2, 200 μM kainic acid 45 min, viability 24 h, MTS): 810 nM | protection of bEND3 cells (cell death / viability after in vitro ischemia/OGD) [3]: reduced; also recorded: able to protect
